Target: RAF proto-oncogene serine/threonine-protein kinase [Y340E,Y341E] (Human, UniProt P04049, Y340E/Y341E)
Assay: Raf Activity Assay
Settings: pH 7.5; 25 °C

Chain of RAF proto-oncogene serine/threonine-protein kinase [Y340E,Y341E] (P04049 whole entry Y340E/Y341E): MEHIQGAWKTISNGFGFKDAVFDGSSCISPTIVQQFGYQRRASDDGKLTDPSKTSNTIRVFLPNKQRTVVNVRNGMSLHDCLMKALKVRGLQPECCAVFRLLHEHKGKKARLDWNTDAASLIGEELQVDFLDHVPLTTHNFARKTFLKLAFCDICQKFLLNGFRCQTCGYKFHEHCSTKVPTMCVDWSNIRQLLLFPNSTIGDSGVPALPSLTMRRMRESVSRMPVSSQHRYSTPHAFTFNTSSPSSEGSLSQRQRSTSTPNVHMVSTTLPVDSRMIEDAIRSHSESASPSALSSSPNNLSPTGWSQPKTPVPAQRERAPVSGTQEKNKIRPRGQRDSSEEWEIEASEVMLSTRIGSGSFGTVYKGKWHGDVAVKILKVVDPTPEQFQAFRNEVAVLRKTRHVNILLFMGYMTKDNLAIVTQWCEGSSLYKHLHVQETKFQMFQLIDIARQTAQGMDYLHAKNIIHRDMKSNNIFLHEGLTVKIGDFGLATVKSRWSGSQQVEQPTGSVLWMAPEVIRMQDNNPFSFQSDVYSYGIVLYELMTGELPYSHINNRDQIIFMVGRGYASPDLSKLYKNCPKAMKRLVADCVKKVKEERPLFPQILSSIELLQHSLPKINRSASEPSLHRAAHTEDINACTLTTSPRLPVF

Structure (SMILES)	IC50 [nM]
CCOc1nc(-c2cc(NC(=O)c3ccnc(C(C)C)c3)ccc2C)cc(N2CCOCC2)n1 [US9694016, 763]	0.2
CCNc1nc(-c2cc(NC(=O)c3ccnc(C(C)(F)F)c3)cnc2C)cc(N2CCOCC2)n1 [US9694016, 725]	1.2
Cc1ncc(NC(=O)c2cc(CN(C)C)cc(C(F)(F)F)c2)cc1-c1cc(N2CCOCC2)c(=O)n(C)c1 [US9694016, 401]	12
Cc1ccc(NC(=O)c2ccnc(C(C)(C)C#N)c2)cc1-c1cc(N2CCOCC2)nc(OC2CNC2)n1 [US9694016, 777]	0.08
CCNc1nc(-c2cc(NC(=O)c3cccc(S(C)(=O)=O)c3)ccc2C)cc(N2CCOCC2)n1 [US9694016, 704]	0.08
Cc1ncc(NC(=O)c2ccnc(C(C)(F)F)c2)cc1-c1cc(N2CCOC[C@@H]2C)n(C)c(=O)c1 [US9694016, 526]	9.4
Cc1ccc(NC(=O)c2ccnc(C3CC3)c2)cc1-c1cc(N2CCOCC2)c(=O)n(C)n1 [US9694016, 656]	0.3
Cn1cc(-c2cc(NC(=O)c3ccnc(C(C)(F)F)c3)ccc2C#N)cc(N2CCOCC2)c1=O [US9694016, 416]	200
CNC(=O)C1CN(c2cc(-c3cc(NC(=O)c4cccc(C(F)(F)F)c4)cnc3C)nn3ccnc23)CCO1 (stereo unspecified) [US9694016, 874]	3.4
CCOc1nnc(-c2cc(NC(=O)c3ccnc(C(F)(F)F)c3)ccc2C)cc1N1CCOCC1 [US9694016, 566]	0.2

More lines, now with the values ahead:

IC50 [nM]	Structure (SMILES)
1.33	Cc1ncc(NC(=O)c2ccnc(C3(C#N)CC3)c2)cc1-c1cnc(OC2CCOCC2)c(N2CCOCC2)c1 [US9694016, 940]
0.8	Cc1ncc(NC(=O)c2ccnc(C(C)(F)F)c2)cc1-c1cnc(C#N)c(N2CCOCC2)c1 [US9694016, 250]
6.6	Cc1ncc(NC(=O)c2cnnc(C(C)(C)C#N)c2)cc1-c1cc(N2CCOCC2)c(OC2CCOCC2)nn1 [US9694016, 635]
3.9	Cc1ncc(NC(=O)c2ccnc(C(C)(C)C#N)c2)cc1-c1cnc(OC(F)F)c(N2CCOCC2)c1 [US9694016, 225]
2	COc1nnc(-c2cc(NC(=O)c3ccnc(C(C)(C)F)c3)cnc2C)cc1N1CCOCC1 [US9694016, 608]
0.5	CCOc1nnc(-c2cc(NC(=O)c3cccc(C(F)F)c3)cnc2C)cc1N1CCOCC1 [US9694016, 619]

From BindingDB's records for patent US9694016 (Novartis AG, 2017)
